Where a name gives a salt, the structure may show the parent alone.
Tested on: Acinetobacter baumannii ATCC17961
Assay: 90% growth inhibitory concentration (IC90) determination, antimicrobial susceptibility testing
Assay type: cell-based
Details: Acinetobacter baumannii, ATCC17961, 16 h, 90% growth inhibition, Iso-Sensitest broth, OD 600 nm over 16 h, 35±2° C.; read-out: ATCC 17961 IC90
Method: Antimicrobial Susceptibility Testing:
90% Growth Inhibitory Concentration (IC90) Determination
The in vitro antimicrobial activity of the compounds was determined according to the following procedure:
The assay used a 10-points Iso-Sensitest broth medium to measure quantitatively the in vitro activity of the compounds against Acinetobacter baumannii ATCC17961 and ATCC17978.
Stock compounds in DMSO were serially twofold diluted (e.g. range from 50 to 0.097 μM final concentration) in 384 wells microtiter plates and inoculated with 49 μl the bacterial suspension in Iso-Sensitest medium to have a final cell concentration of ˜5×10^(5) CFU/ml in a final volume/well of 50 ul/well. Microtiter plates were incubated at 35±2° C.
Bacterial cell growth was determined with the measurement of optical density at λ=600 nm each minutes over a time course of 16 h. Growth inhibition was calculated during the logarithmic growth of the bacterial cells with determination of the concentration inhibiting 50% (IC50) and 90% (IC90) of the growth.
Table 2 provides the 90% growth inhibitory concentrations (IC90) in micromoles per liter of the compounds of present invention obtained against the strain Acinetobacter baumannii ATCC17961.

SMILES	IC90 [nM]
CCc1cc(Nc2nccn3c(-c4ccc(OC(F)F)c(F)c4F)cnc23)ccc1C(=O)N1CCN(C(=O)C2CC[N+](C)(CCNC)CC2)CC1 (stereo not shown) [Example 85, [4-[[3-[4-(difluoromethoxy)-2,3-difluoro-phenyl]imidazo[1,2-a]pyrazin-8-yl]amino]-2-ethyl-phenyl]-[4-[1-methyl-1-[2-(methylamino)ethyl]piperidin-1-ium-4-carbonyl]piperazin-1-yl]methanone bis(2,2,2-trifluoroacetate)]	147
CCc1cc(Nc2nccn3c(-c4ccc(OC)c(F)c4F)cnc23)ccc1C(=O)N[C@H]1[C@@H]2C[N+](C)(CC3CNC3)C[C@@H]21 (mixture of isomers) [Example 137, 4-[[3-(2,3-Difluoro-4-methoxy-phenyl)imidazo[1,2-a]pyrazin-8-yl]amino]-2-ethyl-N-[rac-(1S,5R)-3-(azetidin-3-ylmethyl)-3-methyl-3-azoniabicyclo[3.1.0]hexan-6-yl]benzamide bis(2,2,2-trifluoroacetate)]	1220
CCc1cc(Nc2nccn3c(-c4ccc(Oc5ncccn5)c(F)c4F)cnc23)ccc1C(=O)NCC1CC[N+](C)(CC2CCNC2)CC1 (stereo not shown) [Example 118, 4-[[3-(2,3-Difluoro-4-pyrimidin-2-yloxy-phenyl)imidazo[1,2-a]pyrazin-8-yl]amino]-2-ethyl-N-[[1-methyl-1-(pyrrolidin-3-ylmethyl)piperidin-1-ium-4-yl]methyl]benzamide Formate]	832
CCc1cc(Nc2nccn3c(-c4ccc(Oc5ncccn5)c(F)c4F)cnc23)ccc1C(=O)NCCCNC(=O)C1CC[N+](C)(CC2CCNC2)CC1 (stereo not shown) [Example 3, N-[3-[[4-[[3-(2,3-difluoro-4-pyrimidin-2-yloxy-phenyl)imidazo[1,2-a]pyrazin-8-yl]amino]-2-ethyl-benzoyl]amino]propyl]-1-methyl-1-(pyrrolidin-3-ylmethyl)piperidin-1-ium-4-carboxamide Formate]	484
CCc1cc(Nc2nccn3c(-c4ccc(OC(F)F)c(F)c4F)cnc23)ccc1C(=O)N1CCN(C(=O)C2CC[N+](C)(CC34CC(N)(C3)C4)CC2)CC1 (stereo not shown) [Example 86, [4-[1-[(3-amino-1-bicyclo[1.1.1]pentanyl)methyl]-1-methyl-piperidin-1-ium-4-carbonyl]piperazin-1-yl]-[4-[[3-[4-(difluoromethoxy)-2,3-difluoro-phenyl]imidazo[1,2-a]pyrazin-8-yl]amino]-2-ethyl-phenyl]methanone bis(2,2,2-trifluoroacetate)]	168
Cc1cc(Nc2nccn3c(-c4cn(CC#N)nc4C(F)(F)F)cnc23)ccc1C(=O)N1CCN(C(=O)C[N+](C)(C)C)CC1 [Example 64, [2-[4-[4-[[3-[1-(Cyanomethyl)-3-(trifluoromethyl)pyrazol-4-yl]imidazo[1,2-a]pyrazin-8-yl]amino]-2-methyl-benzoyl]piperazin-1-yl]-2-oxo-ethyl]-trimethyl-ammonium Formate]	780
CCc1cc(Nc2nccn3c(-c4ccc(OC)c(F)c4F)cnc23)ccc1C(=O)NCC1CC[N+](C)(CC2CC[N+](C)(C)C2)CC1 (stereo not shown) [Example 135, 4-[[3-(2,3-Difluoro-4-methoxy-phenyl)imidazo[1,2-a]pyrazin-8-yl]amino]-N-[[1-[(1,1-dimethylpyrrolidin-1-ium-3-yl)methyl]-1-methyl-piperidin-1-ium-4-yl]methyl]-2-ethyl-benzamide Diformate]	479
CCc1cc(Nc2nccn3c(-c4ccc(OC)c(F)c4F)cnc23)ccc1C(=O)N[C@H]1C[C@@H](NC(=O)C2CC[N+](C)(CC3CNC3)CC2)C1 (stereo partly shown) [Example 126, 1-(Azetidin-3-ylmethyl)-N-[3-[[4-[[3-(2,3-difluoro-4-methoxy-phenyl)imidazo[1,2-a]pyrazin-8-yl]amino]-2-ethyl-benzoyl]amino]cyclobutyl]-1-methyl-piperidin-1-ium-4-carboxamide formate 2,2,2-trifluoroacetate (Mixed Salt)]	111
CCc1cc(Nc2nccn3c(-c4ccc(OC(F)F)c(F)c4F)cnc23)ccc1C(=O)NCCC(=O)N1CC[N+](C)(CC2CNC2)CC1 [Example 92, N-[3-[4-(Azetidin-3-ylmethyl)-4-methyl-piperazin-4-ium-1-yl]-3-oxo-propyl]-4-[[3-[4-(difluoromethoxy)-2,3-difluoro-phenyl]imidazo[1,2-a]pyrazin-8-yl]amino]-2-ethyl-benzamide bis(2,2,2-trifluoroacetate)]	332

More lines, now with the values ahead:

IC90 [nM]	SMILES
241	CCc1cc(Nc2nccn3c(-c4ccc(OC)c(F)c4F)cnc23)ccc1C(=O)NCCCCC[N+](C)(CC(=O)O)CC1CNC1 (stereo not shown) [Example 106, Azetidin-3-ylmethyl-(carboxymethyl)-[5-[[4-[[3-(2,3-difluoro-4-methoxy-phenyl)imidazo[1,2-a]pyrazin-8-yl]amino]-2-ethyl-benzoyl]amino]pentyl]-methyl-ammonium Formate]
57.2	COc1ccc(-c2cnc3c(Nc4ccc(C(=O)N[C@H]5C[C@@H](NCC[N+](C)(C)C)C5)c(Cl)c4)nccn23)c(F)c1F [Example 66, 2-[[3-[[2-Chloro-4-[[3-(2,3-difluoro-4-methoxy-phenyl)imidazo[1,2-a]pyrazin-8-yl]amino]benzoyl]amino]cyclobutyl]amino]ethyl-trimethyl-ammonium Formate]
2560	CCc1cc(Nc2nccn3c(-c4ccc(OC)c(F)c4F)cnc23)ccc1C(=O)NCCCCC[N+](C)(CC(=O)O)CC(=O)O [Example 112, bis(carboxymethyl)-[5-[[4-[[3-(2,3-difluoro-4-methoxy-phenyl)imidazo[1,2-a]pyrazin-8-yl]amino]-2-ethyl-benzoyl]amino]pentyl]-methyl-ammonium 2,2,2-trifluoroacetate]
27.4	CCc1cc(Nc2nccn3c(-c4ccc(OC)c(F)c4F)cnc23)ccc1C(=O)NCCCCC[N+](C)(C)CC(N)=O [Example 76, Mono(N-(2-amino-2-oxoethyl)-5-(4-((3-(2,3-difluoro-4-methoxyphenyl)imidazo[1,2-a]pyrazin-8-yl)amino)-2-ethylbenzamido)-N,N-dimethylpentan-1-aminium) monoformate Monoiodide]
131	CCc1cc(Nc2nccn3c(-c4ccc(OC)c(F)c4F)cnc23)ccc1C(=O)NCCCCC[N+](C)(CCCCCN)CC(=O)O (stereo not shown) [Example 11, 5-Aminopentyl-(carboxymethyl)-[5-[[4-[[3-(2,3-difluoro-4-methoxy-phenyl)imidazo[1,2-a]pyrazin-8-yl]amino]-2-ethyl-benzoyl]amino]pentyl]-methyl-ammonium 2,2,2-trifluoroacetate]
121	COc1ccc(-c2cnc3c(Nc4ccc(C(=O)NCCC[N+](C)(C)CCO)c(Cl)c4)nccn23)c(F)c1F [Example 73, 3-(2-chloro-4-((3-(2,3-difluoro-4-methoxyphenyl)imidazo[1,2-a]pyrazin-8-yl)amino)benzamido)-N-(2-hydroxyethyl)-N,N-dimethylpropan-1-aminium Formate]
81.1	COc1ccc(-c2cnc3c(Nc4ccc(C(=O)N[C@H]5CC[C@@H](NC(=O)C[N+](C)(C)C)CC5)c(C)c4)nccn23)c(F)c1F [Example 63, 2-(((1s,4s)-4-(4-((3-(2,3-Difluoro-4-methoxyphenyl)imidazo[1,2-a]pyrazin-8-yl)amino)-2-methylbenzamido)cyclohexyl)amino)-N,N,N-trimethyl-2-oxoethan-1-aminium Chloride]
